Results published in patent publication US7326721B2 (Hypnion, Inc., priority 2003, dated 2008).

Experiments:
[1] = test system: Adrenergic, Beta, Non-selective; experiment: Table 12 panel: Adrenergic, Beta; format: binding; conditions: 1.0E−6, average N=2
Excerpt: (§1) The percentage inhibition (average; N=2) for these receptors is shown below in Table 12.
(§2) Values in Table 12 are expressed as percentage inhibition of specific binding, and these values represent the average of replicate tubes at each of the concentrations tested.

[2] = test system: Melatonin, Non-selective; experiment: Table 12 panel: Melatonin; format: binding; conditions: 1.0E−6, average N=2
Excerpt: as §1, §2

[3] = target: T1, Orphenin (hr) (Homo sapiens, UniProt P41146); experiment: Table 12 panel: Orphenin; conditions: 1.0E−6, average N=2, read-out: percentage inhibition of specific binding
T1 construct: expressed in transfected cells
T1 sequence (P41146 whole entry): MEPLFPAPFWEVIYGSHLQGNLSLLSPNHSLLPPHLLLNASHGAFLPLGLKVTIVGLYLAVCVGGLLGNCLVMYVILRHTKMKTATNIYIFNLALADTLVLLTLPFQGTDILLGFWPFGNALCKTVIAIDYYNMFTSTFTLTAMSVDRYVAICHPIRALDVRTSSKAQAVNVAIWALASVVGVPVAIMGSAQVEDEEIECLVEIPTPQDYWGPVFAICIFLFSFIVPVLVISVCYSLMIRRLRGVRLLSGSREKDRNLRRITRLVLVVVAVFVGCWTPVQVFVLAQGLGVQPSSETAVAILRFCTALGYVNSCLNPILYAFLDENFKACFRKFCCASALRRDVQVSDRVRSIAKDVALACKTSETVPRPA
Excerpt: as §1, §2

[4] = test system: Sigma, Non-selective; experiment: Table 12 panel: Sigma; format: binding; conditions: 1.0E−6, average N=2
Excerpt: as §1, §2

[5] = test system: Potassium Channel, Ca2+ Act., VI; experiment: Table 12 panel: Potassium Channel, Ca2+ Act.; format: binding; conditions: 1.0E−6, average N=2
Excerpt: as §1, §2

[6] = target: Thyrotropin Releasing Hormone, TRH (Homo sapiens, UniProt P34981); experiment: Table 12 panel: TRH; conditions: 1.0E−6, average N=2, read-out: percentage inhibition of specific binding
Thyrotropin Releasing Hormone, TRH, sequence (P34981 whole entry): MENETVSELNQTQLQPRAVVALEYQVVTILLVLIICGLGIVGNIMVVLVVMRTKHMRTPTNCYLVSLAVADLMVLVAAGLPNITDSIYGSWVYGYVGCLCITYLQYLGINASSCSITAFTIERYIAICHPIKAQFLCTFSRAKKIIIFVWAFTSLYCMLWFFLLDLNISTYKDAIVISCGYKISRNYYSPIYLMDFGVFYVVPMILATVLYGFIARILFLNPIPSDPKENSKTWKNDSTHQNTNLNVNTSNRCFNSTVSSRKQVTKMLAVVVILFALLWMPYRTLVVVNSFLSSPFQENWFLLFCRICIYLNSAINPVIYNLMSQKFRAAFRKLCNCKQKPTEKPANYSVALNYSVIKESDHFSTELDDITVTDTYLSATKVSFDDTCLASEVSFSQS
Excerpt: as §1, §2

[7] = target: Angiotensin II, AT1 (h) (Homo sapiens, UniProt P30556); experiment: Table 12 panel: Angiotensin II, AT1; conditions: 1.0E−6, average N=2, read-out: percentage inhibition of specific binding
Angiotensin II, AT1 (h), sequence (P30556 whole entry): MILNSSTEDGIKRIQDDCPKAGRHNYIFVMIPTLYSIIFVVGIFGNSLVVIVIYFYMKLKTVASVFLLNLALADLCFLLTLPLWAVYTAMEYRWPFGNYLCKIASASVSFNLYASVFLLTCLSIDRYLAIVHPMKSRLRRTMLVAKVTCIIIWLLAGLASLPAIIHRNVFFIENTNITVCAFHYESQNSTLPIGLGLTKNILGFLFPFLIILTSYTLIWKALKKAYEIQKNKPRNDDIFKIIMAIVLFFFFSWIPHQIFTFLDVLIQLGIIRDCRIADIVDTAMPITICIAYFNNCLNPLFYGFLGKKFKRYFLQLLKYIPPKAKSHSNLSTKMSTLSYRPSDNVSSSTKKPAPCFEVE
Excerpt: as §1, §2

[8] = target: Neurokinin, NK1 (Homo sapiens, UniProt P25103); experiment: Table 12 panel: NK1; conditions: 1.0E−6, average N=2, read-out: percentage inhibition of specific binding
Neurokinin, NK1, sequence (P25103 whole entry): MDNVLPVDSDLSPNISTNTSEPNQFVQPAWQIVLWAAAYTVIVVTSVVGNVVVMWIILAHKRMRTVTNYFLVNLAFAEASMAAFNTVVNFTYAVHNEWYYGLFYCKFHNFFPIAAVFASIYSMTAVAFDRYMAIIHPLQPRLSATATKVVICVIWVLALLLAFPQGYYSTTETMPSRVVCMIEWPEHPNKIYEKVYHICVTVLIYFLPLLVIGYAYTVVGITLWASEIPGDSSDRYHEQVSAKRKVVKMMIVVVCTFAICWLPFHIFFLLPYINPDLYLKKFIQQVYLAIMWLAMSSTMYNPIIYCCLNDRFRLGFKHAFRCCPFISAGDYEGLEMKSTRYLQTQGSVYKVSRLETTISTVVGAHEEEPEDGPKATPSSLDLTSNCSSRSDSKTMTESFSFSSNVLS
Excerpt: as §1, §2

[9] = target: Esterase, Acetylcholine (Homo sapiens, UniProt P22303); experiment: Table 12 panel: Acetylcholine esterase; format: biochemical; conditions: 1.0E−6, average N=2
Esterase, Acetylcholine, sequence (P22303 32-614): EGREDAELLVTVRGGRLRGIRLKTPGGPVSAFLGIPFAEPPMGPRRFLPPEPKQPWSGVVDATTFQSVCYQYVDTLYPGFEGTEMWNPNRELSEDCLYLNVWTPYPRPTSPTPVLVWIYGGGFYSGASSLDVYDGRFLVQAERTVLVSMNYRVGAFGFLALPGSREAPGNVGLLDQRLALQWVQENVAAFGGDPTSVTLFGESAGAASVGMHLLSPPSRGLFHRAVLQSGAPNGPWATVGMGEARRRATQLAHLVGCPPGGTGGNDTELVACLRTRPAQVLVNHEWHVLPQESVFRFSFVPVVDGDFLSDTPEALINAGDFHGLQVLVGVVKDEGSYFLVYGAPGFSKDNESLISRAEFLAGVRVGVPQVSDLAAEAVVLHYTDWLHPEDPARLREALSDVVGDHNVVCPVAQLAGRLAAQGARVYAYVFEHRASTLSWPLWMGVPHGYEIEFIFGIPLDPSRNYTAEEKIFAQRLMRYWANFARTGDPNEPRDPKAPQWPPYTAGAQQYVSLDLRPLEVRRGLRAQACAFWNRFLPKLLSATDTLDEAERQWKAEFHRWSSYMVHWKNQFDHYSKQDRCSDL
Excerpt: as §1, §2

[10] = target: Oxidase, MAO-B, Peripheral (Homo sapiens, UniProt P27338); experiment: Table 12 panel: MAO-B; format: biochemical; conditions: 1.0E−6, average N=2
Oxidase, MAO-B, Peripheral, sequence (P27338 whole entry): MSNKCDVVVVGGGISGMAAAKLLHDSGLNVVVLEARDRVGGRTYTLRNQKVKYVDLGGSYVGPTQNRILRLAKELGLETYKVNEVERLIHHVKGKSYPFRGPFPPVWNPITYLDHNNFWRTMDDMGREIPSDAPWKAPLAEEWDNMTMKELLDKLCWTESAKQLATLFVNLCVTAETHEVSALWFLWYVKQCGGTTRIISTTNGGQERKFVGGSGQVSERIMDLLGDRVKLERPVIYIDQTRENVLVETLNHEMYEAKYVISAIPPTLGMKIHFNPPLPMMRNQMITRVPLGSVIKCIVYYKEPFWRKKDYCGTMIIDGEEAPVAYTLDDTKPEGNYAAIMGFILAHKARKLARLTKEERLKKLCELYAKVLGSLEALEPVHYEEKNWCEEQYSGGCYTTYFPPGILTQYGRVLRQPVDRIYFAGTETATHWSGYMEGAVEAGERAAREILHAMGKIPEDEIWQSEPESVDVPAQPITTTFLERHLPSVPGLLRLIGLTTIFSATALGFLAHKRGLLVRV
Excerpt: as §1, §2

[11] = target: hERG (Homo sapiens, UniProt Q12809); experiment: Table 12 panel: hERG binding; design: expressed in transfected cells; conditions: human recombinant hERG potassium channel (binding assay), I[Kr] (hERG) (hr), 1.0E−6, average N=2, read-out: percentage inhibition of specific binding
hERG, sequence (Q12809 whole entry): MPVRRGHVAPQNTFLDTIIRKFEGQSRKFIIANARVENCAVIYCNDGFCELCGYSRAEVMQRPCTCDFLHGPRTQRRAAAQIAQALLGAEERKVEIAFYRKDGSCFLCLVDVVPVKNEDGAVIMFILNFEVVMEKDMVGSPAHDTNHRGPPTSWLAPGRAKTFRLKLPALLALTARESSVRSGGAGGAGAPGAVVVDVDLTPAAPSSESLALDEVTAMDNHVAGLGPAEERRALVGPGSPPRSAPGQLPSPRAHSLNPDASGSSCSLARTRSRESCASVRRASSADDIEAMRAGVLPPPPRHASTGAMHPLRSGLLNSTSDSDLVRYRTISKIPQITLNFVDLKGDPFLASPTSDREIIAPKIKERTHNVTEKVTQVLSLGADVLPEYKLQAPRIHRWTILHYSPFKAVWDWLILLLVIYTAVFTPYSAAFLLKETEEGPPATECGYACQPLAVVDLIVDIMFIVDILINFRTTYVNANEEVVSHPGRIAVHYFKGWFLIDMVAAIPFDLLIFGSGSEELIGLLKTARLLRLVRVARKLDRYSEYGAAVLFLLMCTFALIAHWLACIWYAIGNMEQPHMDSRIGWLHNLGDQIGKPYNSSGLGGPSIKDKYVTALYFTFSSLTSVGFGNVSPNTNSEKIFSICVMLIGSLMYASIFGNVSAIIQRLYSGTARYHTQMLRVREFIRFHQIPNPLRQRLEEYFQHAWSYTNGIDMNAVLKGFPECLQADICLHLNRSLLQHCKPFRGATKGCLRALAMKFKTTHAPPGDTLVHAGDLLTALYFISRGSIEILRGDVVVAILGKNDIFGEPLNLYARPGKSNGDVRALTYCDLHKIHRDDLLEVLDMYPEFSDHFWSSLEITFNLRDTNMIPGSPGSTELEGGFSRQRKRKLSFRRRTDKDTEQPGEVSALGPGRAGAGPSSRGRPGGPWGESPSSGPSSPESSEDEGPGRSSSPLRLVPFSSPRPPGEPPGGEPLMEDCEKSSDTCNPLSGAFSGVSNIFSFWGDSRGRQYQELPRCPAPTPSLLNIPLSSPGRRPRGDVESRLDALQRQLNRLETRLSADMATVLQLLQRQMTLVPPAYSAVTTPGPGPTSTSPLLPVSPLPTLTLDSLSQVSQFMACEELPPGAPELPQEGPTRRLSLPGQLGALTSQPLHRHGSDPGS
Excerpt: as §1, §2

[12] = Protein binding in human plasma; format: in vitro ADME
Description: HY2901 was administered to rats, dogs, and cynomolgus monkeys at a dose of 3 mg/kg orally and intravenously. Plasma samples were collected from all species for pharmacokinetic analysis. […] HY2901 is 75% protein bound in rat plasma and 60% protein bound in human plasma.

[13] = target: T2, CYP 1A2 (Homo sapiens, UniProt P05177); experiment: Cytochrome P450 inhibition, human microsomal preparation: CYP 1A2; format: in vitro ADME
T2 construct: in a commercially available human microsomal preparation; purchased; host or cells: human microsomal preparation
T2 sequence (P05177 whole entry): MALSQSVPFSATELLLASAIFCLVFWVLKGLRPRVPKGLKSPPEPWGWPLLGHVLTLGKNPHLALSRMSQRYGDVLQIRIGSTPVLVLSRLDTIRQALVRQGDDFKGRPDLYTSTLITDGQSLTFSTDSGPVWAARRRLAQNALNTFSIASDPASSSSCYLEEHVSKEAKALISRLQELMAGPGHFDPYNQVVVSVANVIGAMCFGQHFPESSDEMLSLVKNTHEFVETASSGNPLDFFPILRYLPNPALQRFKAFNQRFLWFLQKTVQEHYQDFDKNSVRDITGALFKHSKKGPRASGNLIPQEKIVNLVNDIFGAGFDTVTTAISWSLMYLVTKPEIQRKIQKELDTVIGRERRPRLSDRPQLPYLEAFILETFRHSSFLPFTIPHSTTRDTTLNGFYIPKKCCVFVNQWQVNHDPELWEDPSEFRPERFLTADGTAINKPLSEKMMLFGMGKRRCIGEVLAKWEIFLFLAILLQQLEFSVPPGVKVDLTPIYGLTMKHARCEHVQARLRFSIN
Description: (§3) Cytochrome P450 inhibition was studied with HY2901 in vitro. […] In addition, the in vitro rate of metabolism in rat, dog, monkey, and human hepatocyte cultures was determined for HY2901.

[14] = test system: human hepatocytes; experiment: In vitro metabolism in human (cryopreserved) hepatocytes; format: in vitro ADME; conditions: human hepatocyte cultures
Description: Metabolism of test articles in monkey and human cryopreserved hepatocytes is assayed as follows:
Sample is diluted with DMSO, to prepare 100 μM and 10 μM stocks. 0.1% formic acid in acetonitrile is prepared by the addition of 1 mL formic acid per 1 L acetonitrile (store RT for 3 months). 10 minute, 60 and 120 minute 96 well quenching plates are prepared with 150 μL acetonitrile+0.1% formic acid in each well. Store on ice or refrigerated.
Next, hepatocytes are thawed and 100 μL of cell suspension is placed into a microfuge tube with 100 μL 0.4% Trypan Blue solution and gently mix by inversion. A small amount of the stained cell suspension (approximately 15 μL) is placed into a clean hemacytometer with a coverslip. The hemacytometer is placed onto the stage of the microscope and the focus and power are adjusted until a single counting square fills the field. The number of cells in the four outside corner subdivided squares of the hemacytometer are counted. Viable cells are opalescent, round, and pale with a darker outline. Non-viable cells are dark, opaque blue.
198 μL of hepatocytes are transferred to relevant wells on dosing plate.
Plates are preincubated for at least 15 min. […]
as §3

[15] = Acute dog study (toxicity and MTD, escalating oral doses); format: in vivo; conditions: male, Beagle, in vivo; dog, oral gavage
[16] = test system: Beagles; experiment: as above; format: in vivo
[17] = 14-day dog study with recovery phase; format: in vivo; conditions: Beagle, dog, in vivo
Description: (§4) The toxicity and the toxicokinetics of HY2901 when administered daily via oral gavage (Phase 1) or capsules (Phase 2) to dogs for at least 14 days was determined. The reversibility, persistence, or delayed occurrence of observable effects following a 7-day (Phase 1) or 14-day (Phase 2) recovery period was also assessed. Doses of 3, 10, 30, and 70 mg/kg/day were studied.

[18] = test system: Beagles; experiment: 14-day dog study with recovery phase; format: in vivo
Description: as §4

CC(CC(=O)O)N1CCC(=C2c3ccc(F)cc3COc3ccccc32)CC1 (stereo not shown) [Compound 37]
percentage inhibition of specific binding [1]: 6.97% | percentage inhibition of specific binding [2]: 11.29% | inhibition at 1 µM [3]: 3.53% | percentage inhibition of specific binding [4]: 13.27% | percentage inhibition of specific binding [5]: −12.71% ^ | inhibition at 1 µM [6]: -2.98% | inhibition at 1 µM [7]: 12% | inhibition at 1 µM [8]: 10.3% | percentage inhibition [9]: 2.54% | percentage inhibition [10]: 4.24% | inhibition at 1 µM [11]: -5.23%

CC(C)(CN1CCC(=C2c3ccc(F)cc3COc3ccccc32)CC1)C(=O)O [Compound 49a]
protein bound [12]: 60% | inhibition of CYP 1A2 activity [13]: did not inhibit | in vitro metabolism [14]: little metabolism was observed | MTD at 5 days [15]: 75 mg/kg | clinical signs of toxicity ([16]; 25 mg/kg oral gavage): No clinical signs of toxicity | blood pressure ([16]; 40 mg/kg): No significant changes | heart rates ([16]; 40 mg/kg): unaffected | clinical signs of toxicity ([16]; 40 mg/kg on Day 5): body tremors, mild to moderate ataxia, excessive salivation and hypoactivity | clinical signs of toxicity ([16]; 50 mg/kg oral gavage): Body tremors, mild to severe ataxia, and hypoactivity | clinical signs of toxicity ([16]; 75 mg/kg oral gavage): Tremors (entire body, hind limbs, and/or head), mild to moderate ataxia, hypoactivity | body weight ([16]; escalating doses 25-75 mg/kg, 40 mg/kg Day 5): minimal effect on body weight | NOAEL at 14 days [17]: 70 mg/kg/day | clinical observations ([18]; 3 mg/kg/day Phase 1 dogs): no treatment-related clinical observations | respiration rates, rectal body temperatures, body weights, food consumption, electrocardiograms, ophthalmic examinations ([18]; Phase 1 and 2): no changes | clinical observations ([18]; Phase 2 (capsules)): treatment-related head tremors, ataxia, hypoactivity, and excessive salivation | clinical laboratory data ([18]; dog, in vivo): no evidence in the clinical laboratory data of an effect | survival ([18]; dog, in vivo): survived until scheduled sacrifice
